Laboratory results as given in the METLIN SMRT retention time set (Domingo-Almenara et al. 2019).

Assay: gradient 5% acetonitrile 3 min, to 50% in 2 min, to 85% in 15 min, held 3 min, 100 µL/min
Conditions: column: Zorbax Extend-C18 2.1 x 50 mm; eluents: water / acetonitrile, 0.1% formic acid
Outline: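 Using water and acetonitrile that each contained 0.1% formic acid, mixtures of ~100 pure standards were separated at 100 μL/min on a Zorbax Extend-C18 column (2.1 × 50 mm, 1.8 μm). The HPLC fed a quadrupole time-of-flight mass spectrometer working in positive and negative ionization mode, with dead and dwell volumes of 40 μL and 900 μL. Data were acquired over 3 months. Retention time was read from computationally picked adduct peaks after manual inspection of each.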

RP-LC retention time	Structure (SMILES)
592 s	COc1ccc(-n2nnc(C(=O)O)c2-c2ccncc2)cc1
862 s	O=C(Cn1cccc1-c1nnc(C2CCC2)o1)Nc1ccccc1
612 s	O=C1CCSc2ccc(S(=O)(=O)N3CCN(c4ccccn4)CC3)cc2N1
691 s	N#Cc1cccc(C(=O)NC2CCN(c3cc(-c4ccccc4)[nH]n3)C2)c1 (stereo unspecified)
695 s	O=C(NC1CCN(C(=O)c2cc(-c3cccs3)[nH]n2)CC1)c1cccs1
684 s	COCCn1ncc(N2CCC(C(=O)Nc3cc(OC)cc(OC)c3)C2)cc1=O (stereo unspecified)
908 s	O=S(=O)(c1ccc2c(c1)OCCO2)N1CCCn2nc(-c3cccs3)cc2C1
850 s	Cc1ccc(-c2cc3n(n2)CCCN(C(=O)c2n[nH]c4ccccc24)C3)cc1
696 s	CSc1ccc(C2C(C(=O)N3CCOCC3)=C(C)NC3=C2C(=O)CC(C)(C)C3)cc1 (stereo unspecified)
776 s	CCC(=O)N1CCc2cc(N3CC(C(=O)NCc4cccc(Cl)c4)CC3=O)ccc21 (stereo unspecified)
609 s	CC(=O)Nc1cccc(NC(C)=O)n1
726 s	CCSc1nnc(NC(=O)CSc2nnc(-c3ccco3)o2)s1
849 s	O=C(Nc1ccc(Br)cc1)NC1CCN(c2ccccc2)C1=O (stereo unspecified)
720 s	CCOc1ccc(-c2cc3c(=O)n(Cc4nc(-c5ccccc5)no4)ncn3n2)cc1
724 s	CCNC(=O)C1CCN(Cc2cc3ccccc3n2Cc2ccc(C)cc2)CC1
705 s	CNC(=O)N1CCC(C2CCN(C(=O)c3ccc(Cl)s3)C2)CC1 (stereo unspecified)
853 s	O=C(Nc1cc(F)cc(F)c1)c1csc(-c2ccc(N3CCCC3)nc2)n1
601 s	CC(=O)c1cccc(NC(=O)Cn2nc3c(cc2=O)CN(C(C)=O)CC3)c1
1030 s	COC(=O)c1ccccc1NC(=O)C1(c2cccs2)CCOCC1
1160 s	COc1ccc(NC(=O)C2CCCN(c3nc4c(s3)c(C)nn4-c3ccccc3)C2)c(OC)c1 (stereo unspecified)
592 s	Cc1[nH]c(=O)[nH]c(=O)c1CCC(=O)N1CCC(c2nc3ccccc3s2)CC1
864 s	CCCN1C(=O)CN(S(=O)(=O)c2ccc(C)cc2)CC1(C)C(=O)NCc1ccccc1 (stereo unspecified)
848 s	CC(C)CNC(=O)N1CCc2nc(OCC3CC3)ccc2C1

RP-LC retention time	Structure (SMILES)
724 s	CCOc1nccnc1N1CCC(N(C)C(=O)c2ccsc2)C1 (stereo unspecified)
573 s	CC(C)c1nccn1C1CN(C(=O)COc2ccc(F)cc2)C1
1400 s	COc1ccc(-c2nc(NC(=O)c3ccc(-c4nc5ccccc5s4)s3)sc2C)cc1
1080 s	CCN(CC)C(=O)c1cnc2snc(C)c2c1N1CCC(C(=O)Nc2ccc(Br)c(C)c2)CC1
927 s	CCc1ccc(NC(=O)C2CCN(S(=O)(=O)c3ccc4c(c3)NC(=O)C(C)O4)CC2)cc1 (stereo unspecified)
802 s	COc1ccc(S(=O)(=O)N2CCCC(C(=O)NC3CCCC3)C2)cc1OC (stereo unspecified)
849 s	Cc1ccc(-c2cc3c(N4CCC(C(=O)NC5CCCC5)CC4)nccn3n2)c(C)c1
853 s	COc1ccc(NC(=O)N2CCc3c(c(-c4nnc(-c5ccccc5Cl)o4)nn3C)C2)cc1
699 s	CCOc1ccc(CNC(=O)Cc2nnc(-c3ccccn3)o2)cc1
1240 s	O=C(Cc1cccc(Cl)c1)Nc1ccsc1-c1nnc(C2CC2)o1
855 s	CCc1cc(C2CCCN2C(=O)NCc2cccc(OC)c2)on1 (stereo unspecified)
795 s	COc1ccc(-c2cn3c(CC(=O)Nc4ccc(F)cc4Cl)csc3n2)cc1
597 s	O=S(=O)(c1cc(-c2nnc(C3CC3)o2)co1)N1CCC(N2CCCCC2)CC1
555 s	Cc1cc(C(=O)N2CC(c3nc4ccccc4[nH]3)C2)no1
568 s	O=C(Cc1csc(SCc2ccncc2)n1)NCc1ccc2c(c1)OCO2
847 s	CCCCS(=O)(=O)c1cc2c(cc1NC(=O)Cc1ccc(F)cc1)n(C)c(=O)n2C
854 s	CCc1nc(OCC(=O)Nc2cc(F)ccc2F)c2ccccc2n1
1020 s	Cc1cc2nc(C(=O)Nc3cccc(C)c3C)cc(C)n2n1
794 s	Cc1ccccc1NC(=O)N1CCC(N2CCN(Cc3ccccc3)C2=O)CC1
792 s	O=C(NC1CCN(c2cc(-c3ccccc3)[nH]n2)C1)c1ccc2cc[nH]c2c1 (stereo unspecified)
651 s	O=C(COc1ccccc1)Nc1nnc(C2=COCCO2)o1
667 s	O=C(NCc1cc(F)ccc1F)C1CCN(c2cnc(N3CCCC3)nc2)CC1
1200 s	CCCCOc1ccc(-c2ccc(=O)n(Cc3nc(-c4cc(OC)c(OC)c(OC)c4)no3)n2)cc1

RP-LC retention time	Structure (SMILES)
592 s	C=CCNC(=O)N1CC(=O)Nc2ccccc21
1100 s	CC(C)Oc1ccc(-c2noc(Cc3nnc(-c4ccccc4)o3)n2)cc1
1120 s	O=C1COc2ccccc2N1Cc1nc(-c2ccc(F)c(Br)c2)no1
789 s	Cc1ccc(S(=O)(=O)N2CCC(CCC(=O)NC3CC3)CC2)cc1
729 s	COCC1CN(C(=O)c2ccoc2C)CCC1(F)F (stereo unspecified)
757 s	O=C(c1cccc([N+](=O)[O-])c1)N1CCN(C(c2ccccc2)c2ccccc2)CC1
635 s	COc1ccc(CN(Cc2cc(=O)n3cccc(C)c3n2)CC(C)C)cc1OC
702 s	Cn1c(=O)sc2cc(S(=O)(=O)N3CCC(C(=O)N4CCCC4)CC3)ccc21
775 s	COc1ccc(CNC2=NCCNC23CCN(S(=O)(=O)c2ccc(C)c(C)c2)CC3)cc1
1040 s	CCn1nccc1-c1cccc(-c2noc(-c3cccnc3Cl)n2)c1
1010 s	COc1ccc(Cl)cc1NC(=O)N1CCCC1c1nc(-c2ccccc2OC)no1 (stereo unspecified)
617 s	Cc1c(C2CCN(C(=O)c3nccc4ccccc34)CC2)noc1N
623 s	COCCNC(=O)[C@@H]1[C@H](c2cc(OC)c(OC)c(OC)c2)c2cc3c(cc2[C@H](O)[C@H]1CO)OCO3
990 s	O=C(Nc1ccc(OCc2nnc(-c3ccc(Cl)cc3)o2)cc1)c1ccccn1
710 s	Cc1sc2cc(C(=O)N3CCN(c4ccccc4)CC3)[nH]c2c1CN1CCOCC1
622 s	CC(C)c1noc(-c2ccnc(-n3cnc(C(=O)N(C)C4CCCCC4)c3)c2)n1
622 s	O=C(Cn1cnc2nc3c(cc2c1=O)CCCC3)N1CCN(C(=O)c2ccco2)CC1
773 s	COc1ccc(-c2nc3cccc(C)n3c2Nc2ccccc2C)cc1
604 s	CN(C)C1(CC2CC2)CCN(C(=O)C2CCCC2)CC1
955 s	N#Cc1c(N)sc2c1CCC(c1ccccc1)C2 (stereo unspecified)
646 s	Cc1cc(NCC(=O)NC2CCCCC2)n2nc(-c3cccnc3)nc2n1
639 s	CCN(CCNC(=O)CCc1cc2ccc(C)cc2[nH]c1=O)Cc1ccccc1
603 s	Cc1cccn2c(=O)cc(CN(C)Cc3ccccc3)nc12

RP-LC retention time	Structure (SMILES)
664 s	COc1ccc(NC(=O)N2C[C@@H](F)C[C@H]2C(=O)N2CCCCC2)cc1
932 s	CN(CCc1noc(-c2ccc(Cl)cc2)n1)C(=O)NCc1ccccc1
783 s	CSc1ncc(Cl)c(C(=O)Nc2cc(C)on2)n1
631 s	COc1ccc(NC(=O)CN2CCc3[nH]c4c(C)cc(F)cc4c(=O)c3C2)c(OC)c1
1110 s	C=CCOc1ccnc(-c2ccccc2)n1
1010 s	Cc1cc(C)n(-c2cc(Nc3ccc(F)cc3)ncn2)n1
680 s	CC(C)N1CCn2c(nc3cc(C(=O)NCc4ccc5c(c4)OCO5)ccc32)C1=O
526 s	COc1ccc(N2C(=O)CCC(C(=O)NCCCN3CCN(C)CC3)C2c2ccc(F)cc2)cc1 (stereo unspecified)
674 s	COc1cc(CNC(=O)C2CCN(Cc3cn(C)c4ccccc34)CC2)cc(OC)c1
800 s	CCCN(CC(=O)N1CCc2sccc2C1COc1ccccc1OC)C(=O)COC (stereo unspecified)
731 s	Cc1nc(-c2ccc(C(=O)NC(C)C)cc2)cs1
936 s	O=C(CSc1nnc(Cc2ccccc2)o1)Nc1nc(-c2ccccc2)cs1
1060 s	Cc1cccc(-c2nc(Cn3nnc(-c4nc(-c5cccnc5)no4)c3C)c(C)o2)c1
607 s	CCCc1nnc(NC(=O)c2ccc3[nH]c(C)cc(=O)c3c2)s1
722 s	Cc1cc(C)cc(NC(=O)N2CCCC2c2nncn2C2CCCC2)c1 (stereo unspecified)
672 s	CCn1cc(CCNC(=O)Nc2ccc3c(c2)OCO3)c2cccnc21
666 s	COc1ccc(CCc2nc3nccc(-c4cccnc4)n3n2)cc1OC
644 s	Cc1ccccc1OCC(=O)N1CCN(C2=CC3=NCC(C)N3C=N2)CC1 (stereo unspecified)
876 s	Cc1cnn(Cc2nc(-c3ccc(NC(=O)c4cc(C)on4)cc3)oc2C)c1
816 s	c1ccc2c(c1)CCN(Cc1nc(-c3ccc(N4CCCCCC4)nc3)no1)C2

Structure (SMILES)	RP-LC retention time
Cc1ccsc1-c1nnc(CC(=O)N2CCN(Cc3ccccc3)CC2)o1	630 s
CN(C(=O)Cc1ccc(Cl)c(Cl)c1)C(CN1CCCC1)c1cccc(OCC(=O)O)c1 (stereo unspecified)	770 s
